Assays:
[1] = system: human subjects (perception of dyspnoea); assay: Borg score for dyspnoea before and after inhalation challenge; assay type: in vivo; set-up: key to ΔBorg (change in Borg score before and after challenge): Borg score after minus before challenge; 0–10 scale
Excerpt: The clinical study described in Examples 2-4 was randomized, double blind, crossover, and controlled. Each subject attended the laboratory on three occasions. Procedures on the initial screening visit included obtaining information about the study and a number of investigations in the following order: medical history, lung function, reversibility and skin prick testing. At visit 2 and 3, separated by 2-7 days, the subjects were subjected to either an ATP or AMP challenge in a randomized fashion such that, by the end of the study, each patient had been tested with both compounds. Before, immediately after, and 30 minutes after the challenge, lung function and Borg score for dyspnoea were determined, and symptoms other than dyspnoea were recorded.
The modified Borg scale used to quantitate dyspnoea in the clinical study described in Examples 2-4 was a category scale in which words describing degrees of breathlessness were anchored to numbers between 0 and 10. The subjects were asked to select a number whose corresponding words most appropriately described their perception of breathlessness. The change in dyspnoea was expressed as ΔBorg, which was the difference in Borg score before and after the challenge [Rutgers et al. (2000) Eur. Respir. J. 16:486-490; Burdon et al. (1982) Am. Rev. Respir. Dis. 126:825-828]. Terms and associated numbers used in assessing Borg score were as follows: 0, “nothing at all”; 0.5, “very, very slight”; 1, “very slight”; 2, “slight”; 3, “moderate”; 4, “somewhat severe”; 5, “severe”; 7, “very severe”; 9, “very, very severe (almost maximal)”; and 10, “maximal” [Burdon et al. (1982)].
For the tests described in Examples 2-4, ATP and AMP (Sigma, Gillingham, Dorset, England) were dissolved freshly in normal saline solution to produce a range of doubling concentrations from 0.227-929 umol/ml for ATP and from 0.138-1152 umol/ml for AMP and immediately used for bronchial challenge. The solutions were administered using a breath-activated dosimeter (Mefar, Bovezzo, Italy) with an output of 10 ul per inhalation [Prieto et al. (2003) Chest 123:993-997]. The subjects, while wearing a nose clip, inhaled (via a mouthpiece) five breaths of normal saline, followed by sequential doubling concentrations of either ATP or AMP from functional residual capacity to total lung capacity. FEV1 was measured from two minutes after the fifth inhalation of normal saline until there was a fall in FEV1 of ≧20% of its value recorded after saline inhalation or until maximal concentration of either ATP or AMP was inhaled. The provocative dose causing a 20% decrease in FEV1 (PD20) was calculated by interpolation of the logarithmic dose response curve.

[2] = system: vagal C fiber; assay: Vagal activation experiments in dogs: action potentials in vagal C fibers; assay type: in vivo; details: anesthetized dog, rapid bolus; simultaneous recording with RAR-containing fiber
Method: The experiments described in Example 5 were performed essentially as described in Pelleg et al. [(1996) J. Physiol. 490(1):265-275] and U.S. Pat. No. 5,874,420, both of which are incorporated herein by reference in their entirety. In brief, they were performed on anesthetized (sodium pentobarbitone, 30 mg kg^−1 plus 3 mg kg^−1 h^−1, intravenous) dogs artificially ventilated with room air using a respirator. Arterial blood pH, PO2, PCO2, body temperature were maintained as described in U.S. Pat. No. 5,874,420. A peripheral vein was cannulated for the administration of physiological saline solution and maintenance doses of anesthetic. Catheters were introduced via the femoral vein and left atrial appendage and positioned in the right atrium and left atrium for the administration of test solutions. The chest was opened by a longitudinal sternotomy. The right cervical vagosympathetic trunk was exposed by a midcervical longitudinal section of the skin and careful dissection of neck muscles and connective tissues. The edges of the cut skin were elevated and secured to create a trough which was filled with warm (about 37° C.) mineral oil. A section of the vagosympathetic trunk was placed on a small plate of black Perspex™ and fine branches were separated from the main bundle by careful dissection using microsurgical tools and a dissecting microscope (Model F212, Jenopik Jena, GmbH, Germany).
Extracellular neural action potentials were recorded using a custom-made bipolar electrode that contained two platinum-iridium wires (1.25 cm×0.0125 cm) connected to a high-impedence first-stage differential amplifier (model AC8331, CW, Inc., Ardmore, Pa.) via a shielded cable. The output of the first-stage amplifier was fed into a second-stage differential amplifier (model BMA-831/C, CWE, Inc.). Isolated fibers were laid on the pair of platinum-iridium wires. Vagal C fibers with chemosensitive endings have a sparse irregular discharge which is not associated with cardiac or respiratory cycles. […]
ATP (3 umole kg^−1) and capsaicin (10 ug kg^−1) were administered as a rapid bolus into the right atrium (5 ml test solution+5 ml physiological saline flush). α,βmATP and β,γmATP were given as one low dose only (0.75 umol kg^−1) to avoid systemic side effects. […] To exclude involvement of baroreceptors in the recorded neural activity, the latter was monitored before and after a bolus of nitroglycerine (1 mg; intravenous). […]

With Nc1ncnc2c1ncn2[C@@H]1O[C@H](COP(=O)(O)OP(=O)(O)OP(=O)(O)O)[C@@H](O)[C@H]1O [ATP, adenosine 5′-triphosphate] the “ΔBorg (change in Borg score before and after challenge)” value ([1]; COPD) was 2.6, the “Borg score after challenge (at PD20)” value ([1]; COPD patients) was 2.7 and the “Borg score after challenge” value ([1]; healthy smokers) was 1.3. For the same compound, the “Borg score after challenge (at PD20)” value ([1]; patients with asthma) was 3.3, the “ΔBorg (change in Borg score before and after challenge)” value ([1]; patients with asthma) was 3.2 and the “Borg score after challenge” value ([1]; smokers at risk) was 1.9. The “effect on action potentials of C fibers” value [2] was “stimulated both the C fibers and RAR-containing fibers”.

Source: patent US20060029548A1, “Methods of diagnosing, monitoring and treating pulmonary diseases” (priority 2004, published 2006)
